Laboratory results from publication PMC6814236, “Monitoring and characterizing soluble and membrane-bound ectonucleotidases CD73 and CD39” (PLoS ONE, 2019).
Entries after “also recorded” stand apart in the source; their conditions may differ.

What was measured:
[1] = tested on: T1, cN-II (Human cytosolic 5'-Nucleotidase); assay: Enzyme activity of purified cytosolic cN-II (AMP-Glo assay); format: biochemical; conditions: cN-II 0.6 mU/Rx, 10μM AMP, 37°C for 30 min
T1 construct: purchased NovoCIB SAS
Protocol: • 2 Determination of enzyme activity of purified cytosolic cN-II. Activity of purified cN-II (Human cytosolic 5'-Nucleotidase) was determined using 25μl reaction buffer (50mM HEPES, pH 7.0, 100mM KCl, 20mM MgCl2, 5mM DTT, 2.5mM dATP, and 0.1mg/ml BSA) containing enzyme and AMP substrate at 10μM (96-well format). Reaction continued at 37°C for 60 minutes or for a certain time period and terminated by the addition of equal volume (25μl) of AMP-Glo™ Reagent I. Reactions were mixed well and incubated for additional 30 min at 23°C. This was followed by the addition of 50 μl of AMP Detection Solution (10μl of AMP-Glo™ Reagent II per ml of Kinase-Glo® One Solution) and incubated for additional 60 min at 23°C before reading luminescence. • 3 Determination of enzyme activity of purified CD39. Activity of CD39 was determined using reaction buffer that contains 25mM Tris, pH 7.5, 5mM CaCl2, and 0.1mg/ml BSA), with 1μM to 5μM ATP or ADP as substrate, respectively. When ATP is used as a substrate, an equal volume of Kinase-Glo® One Solution was added to CD39 reactions and incubated for 15 min before reading luminescence using a luminometer. […] Reactions were mixed well and incubated for 60min before reading luminescence using luminometer. […]

[2] = biological target: T2, Recombinant Human 5'-Nucleotidase/CD73 (Homo sapiens, UniProt P21589); set-up: method as in PMID 18302942, PMID 24144488; conditions: reported by others; ref [25], [26]; cited from earlier work
T2 construct: purchased R&D Systems
T2 sequence (P21589 27-574): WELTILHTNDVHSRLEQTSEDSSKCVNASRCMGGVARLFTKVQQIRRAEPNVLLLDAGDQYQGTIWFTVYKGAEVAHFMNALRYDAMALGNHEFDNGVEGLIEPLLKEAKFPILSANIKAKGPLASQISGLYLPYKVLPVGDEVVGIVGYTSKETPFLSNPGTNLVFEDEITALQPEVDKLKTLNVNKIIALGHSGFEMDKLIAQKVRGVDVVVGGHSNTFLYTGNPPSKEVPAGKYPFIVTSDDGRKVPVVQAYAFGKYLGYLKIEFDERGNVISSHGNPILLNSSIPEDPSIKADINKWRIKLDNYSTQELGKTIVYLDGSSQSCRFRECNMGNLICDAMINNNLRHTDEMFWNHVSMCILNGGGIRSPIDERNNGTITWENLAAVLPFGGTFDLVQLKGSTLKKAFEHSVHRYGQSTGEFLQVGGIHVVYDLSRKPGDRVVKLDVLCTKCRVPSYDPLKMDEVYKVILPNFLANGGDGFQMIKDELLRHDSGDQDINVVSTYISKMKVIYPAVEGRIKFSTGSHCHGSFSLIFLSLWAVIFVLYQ

## Nc1ncnc2c1ncn2[C@@H]1O[C@H](COP(=O)(O)CP(=O)(O)O)[C@@H](O)[C@H]1O [AMP-CP, Adenosine 5'-(α, β-methylene) diphosphate]
[1]
  inhibition of cN-II: minimal or no inhibition; also recorded: no inhibition
[2]
  IC50: 236 nM
